Test results: US20240226100A1, “CONTROL OF PROTEIN EXPRESSION WITH TMP-PROTAC COMPOUNDS” (THE TRUSTEES OF THE UNIVERSITY OF PENNSYLVANIA, priority 2021, published 2024)

Tests used:
[1] = system: FAP CAR-eDHFR direct fusion (DF); assay: Dose response of surface CAR expression in primary human FAP-eDHFR DF CAR T cells, flow cytometry; assay type: cell-based; conditions: for degradation / downregulation of CAR molecules from the surface of CAR T cells: primary human FAP-eDHFR CAR T cells
Protocol: Generated CAR T cells were pelleted, resuspended in 2% BSA in PBS (Invitrogen), and incubated with Alexa Fluor® 647 AffiniPure F(ab′2) fragment goat anti-mouse IgG (Jackson ImmunoResearch Laboratories) for 30 minutes at room temperature. Stained cells were washed 3 times with PBS, and were analyzed on a flow cytometer (LSR II, BD Biosciences) for CAR and/or BFP expression. All flow data were analyzed using FlowJo software (FlowJo).
Following incubation, the cells were washed and stained with Alexa Fluor® 647 AffiniPure F(ab′2) fragment goat anti-mouse IgG (Jackson ImmunoResearch Laboratories) as described under “Flow Cytometry”, and their surface expression was analyzed on a flow cytometer (LSR II, BD Biosciences).
Data plotted as raw CAR stain fluorescence is shown in the left panel and percent of maximum CAR expression is shown in the right panel.
Values are reported as percent of maximum CAR expression (i.e. relative to CAR T cells that were treated with vehicle control). Each color represents a different donor (n=3).

[2] = system: FAP CAR-eDHFR direct fusion (DF); assay: Washout kinetic assay of CAR expression in primary human FAP-eDHFR DF CAR T cells; assay type: cell-based; conditions: 100 nM, washout after 24 h
Protocol: Following a 24 hour incubation with TMP-POM 7c, the remaining cells were washed multiple times with […] (Corning) to remove the drug, returned to culture in a new 12-well plate, and then again sampled serially at different time points following the wash (3, 6, 24, 48, and 72 hours post-washout). All cells were stained for CAR and fixed in 4% following sampling, and were analyzed on a flow cytometer (LSR II, BD Biosciences).
Following 24-hour incubation with TMP-POM 7c, the cells were washed multiple times to remove the drug (red arrow), seeded on a new plate, and then again sampled serially following the drug washout. All cells were stained for CAR and fixed in 4% following sampling.

[3] = system: eDHFR-Lck fusion protein; assay: Dose response in HEK293T eDHFR-Lck cells, Western blot; assay type: cell-based, Escherichia coli; conditions: 24 h
[4] = system: eDHFR-Luc; assay: Time course in OVCAR8 eDHFR-Luc cells, luminescence; assay type: cell-based, Escherichia coli; conditions: between 390 and 24 nM
Protocol: OVCAR8^eDHR-luc+ cells were plated in black wall/clear bottom (Falcon) 96-well plates (4×10^4 cells/well) in 200 uL of complete media and incubated with serially diluted compound 7c at −48, −24, −12, −8 and −4 h and analyzed together at 0 h (t=0). Luciferin is prepared to 1× with complete media and 50 uL of Luciferin solution is added to the cells which are then analyzed by plate reader (ThermoFisher Varioskan Plusplate).
After the addition of Luciferin/complete media solution, luminescence was measured at the same time (t=0) by plate reader. 90% degradation of eDHFR-luc measured in 12 h between 390 and 24 nM, and 95% degradation of eDHFR-luc measured in 24 h between 390 and 24 nM.

[5] = system: eDHFR-YFP; assay: Washout experiment, eDHFR-YFP recovery in HEK293T eDHFR-YFP+ cells, Western blot; assay type: cell-based, Escherichia coli; conditions: 100 nM 7c, washed twice with PBS
Protocol: HEK293T^eDHFR-YFP+ cells were seeded in a clear (Falcon) 12-well plate (3×10^5 cells/well) in complete media. The next day, cells were incubated with 100 nM 7c for 24 h in complete media. Media was removed by vacuum, cells were gently washed with 1 mL PBS 2×, then cell media was replenished. Next, cells were isolated +0 to 24 h after washing and prepared for Western blot analysis.
Protein degradation is reversed in as early as 4 h after drug removal from cell media.

`COc1cc(Cc2cnc(N)nc2N)cc(OC)c1OCCCC(=O)NCCOCCOCCNc1cccc2c1C(=O)N(C1CCC(=O)NC1=O)C2=O` (stereo not drawn) [Compound 7c, 4-(4-((2,4-diaminopyrimidin-5-yl)methyl)-2,6-dimethoxyphenoxy)-N-(2-(2-(2-((2-(2,6-dioxopiperidin-3-yl)-1,3-dioxoisoindolin-4-yl)amino)ethoxy)ethoxy)ethyl)butanamide] was tested, and the “CAR expression remaining, percent of maximum CAR expression” value ([1]; as early as 4 hours post-incubation, relative to vehicle control) was 20 % of maximum CAR expression, the “degradation / downregulation of CAR molecules from the surface of CAR T cells” value [1] was “leads to degradation of CAR molecules from the surface of CAR T cells” and the “degradation / downregulation of CAR molecules from the surface of CAR T cells” value ([1]; listed as TMP-POM 7c) was “effectively downregulates CAR in a dose-dependent and reversible manner”. For the same compound, the “time following washout for CAR expression to return to baseline” value [2] was ~72 h, the “time following washout for CAR expression to start recovering” value [2] was “around 24 hours” and the “concentration of optimal degradation of eDHFR-Lck fusion protein” value [3] was 97 nM. For the same compound, the “degradation of eDHFR-luc” value ([4]; 12 h) was 90%, the “degradation of eDHFR-luc” value ([4]; 24 h) was 95% and the “time after drug removal at which protein degradation is reversed” value [5] was ≤ 4 h.
